Converted amounts (≈) assume the structure as drawn.
Columns and labels:
[1] = tested on: Sarcoma 180 solid tumour; assay: Effect against Sarcoma 180 solid tumour; assay type: in vivo, mice of ddy strain; conditions: Mus musculus, Sarcoma-180, iv, 168 h; male ddy mice, tail vein injection 24 hours after implantation; tumour volume 7 days after implantation; read-out: ED50 (dose reducing the volume of Sarcoma 180 solid tumours by 50%)
Protocol: (1) Effect aginast Sarcoma 180 solid tumour:
5×10^6 cells of Sarcoma 180 solid tumour cells were abdominally implanted into male mice of ddy strain. 7 days after this, ascites cells were sampled. The ascites cells were washed once with a sterilized physiological solution of sodium chloride and were used to prepare a cell suspension containing 5×10^7 cells per ml. 0.1 ml of the cell suspension was subcutaneously implanted into the right armpit of a male mouse (ddy strain; body weight 20±2 g). 24 hours after the implantation of the tumour cells, the test compound dissolved in a physiological solution of sodium chloride containing Tween 80, was injected into the tail vein of each mouse of a group consisting of 5 animals at a dose of 0.1-0.2 ml. The anti-tumour activity of the test sample was determined as follows:
7 days after the implantation, the major axis (a) and the minor axis (b) of the tumour were measured to calculate a value of "a×b^2 /2" which corresponds to the volume of the tumour. The anti-tumour activity was expressed by T/C viz. the ratio of the volume of the tumours (T) of the group of animals administered with the test compound to the corresponding volume of tumours (C) of the untreated animals.
(2) Determination of ED50 :
The term ED50 denotes the administered amount needed for reducing the volume of Sarcoma 180 solid tumours in the animals by 50% on the basis of the corresponding volume of Sarcoma 180 solid tumours in the untreated animals. On graph paper, the value T/C was indicated by an arithmetic scale on the longitudinal axis and the administered amount of test compound was indicated by a logarithmic scale on the lateral axis. A straight line indicating the relationship between the dose and T/C was determined by the least squares method from which a dose corresponding to T/C of 0.5 was obtained.

[2] = Acute toxicity; conditions: mouse, in vivo; ddy mice, single intravenous administration, observed for 14 days, Behrens Korber's method
Protocol: Each animal of the test group consisting of 5 ddy mice was once administered intravenously with a test compound. […] The LD50 was determined by the Behrens Korber's method.

[3] = tested on: HeLa S3 cells; assay: Inhibition test against the growth of HeLa S3 cells; assay type: cell-based; conditions: Homo sapiens, 72 hours, neutral red, read-out: IC50 (growth inhibition by 50%)
Protocol: Inhibition test against the growth of HeLa S3 cells
Each 0.1 ml of MEM medium containing 10% foetal calf serum and 2 mM glutamine, which contained 3×10^4 HeLa S3 cells per ml, was put into each well of a 96 well microtitre plate. Without any pre-treatment, the cells were cultured overnight at a temperature of 37° C. in a CO2 incubator.
On each occasion, 0.05 ml of a test sample which had been suitably diluted was added to the well. After treating with the test compound for 72 hours, the supernatant was removed. After washing once with a PBS (-), a fresh medium (0.1 ml) was added to each well, followed by incubating at a temperature of 37° C. for 2 hours in the incubator.
After removal of the supernatant, 0.1 ml of a medium containing neutral red (0.02%) was added to each well. The cells were dyed by incubating at a temperature of 37° C. for one hour in the incubator. After removal of the supernatant, followed by washing once with a physiological solution of sodium chloride, the dyestuff was removed from each sample by extraction using a mixture of 0.001N hydrochloric acid and 30% ethanol. A microplate reader was used to measure the absorption at 550 nm. By comparing the absorption of untreated cells with the absorption of the cells treated with the test compound having a pre-determined concentration, a concentration of the test compound capable of inhibiting the growth of the cells by 50% was calculated and designated as IC50.

[4] = tested on: Proteus vulgaris ATCC 6897; assay: Anti-bacterial activity, agar dilution method at pH 7.0 (PV); assay type: cell-based; conditions: ATCC6897, read-out: minimum growth inhibitory concentration, PV
Description: (§1) In this table, the microorganisms are abbreviated as follows:
PV: Proteus vulgaris ATCC 6897

[5] = tested on: Streptococcus faecium: Enterococcus faecium ATTC 10541; assay: Anti-bacterial activity, agar dilution method at pH 7.0 (SF); assay type: cell-based; conditions: pH 7, read-out: minimum growth inhibitory concentration, SF
Description: as §1
SF: Streptococcus faecium: Enterococcus faecium

[6] = tested on: Klebsiella pneumoniae ATCC 10031; assay: Anti-bacterial activity, agar dilution method at pH 7.0 (KP); assay type: cell-based; conditions: ATCC10031, read-out: minimum growth inhibitory concentration, KP
Description: as §1
KP: Klebsiella pneumoniae ATCC 10031

[7] = tested on: Staphylococcus aureus ATCC 6538P; assay: Anti-bacterial activity, agar dilution method at pH 7.0 (SA); assay type: cell-based; conditions: ATCC6538P, read-out: minimum growth inhibitory concentration, SA
Description: as §1
SA: Staphylococcus aureus ATCC 6538P

SMILES | ED50 [1] | LD50 at 336 h [2] | IC50 [3] | MIC [4] | MIC [5] | MIC [6] | MIC [7]
CCCCCCCC(=O)OC1=C(C)C2(OCCO2)C(=O)C2=C1N1C[C@@H]3N[C@@H]3[C@]1(OC)[C@@H]2COC(N)=O [Compound 11] | 0.77 mg/kg | 3.1 mg/kg | 0.01 µg/mL (≈ 0.0198 µM) |  |  |  | 
CCCCCCCCCCCC(=O)OC1=C(C)C2(OCCO2)C(=O)C2=C1N1C[C@@H]3N[C@@H]3[C@]1(OC)[C@@H]2COC(N)=O [Compound 6] | 1.2 mg/kg | 3 mg/kg | 0.0019 µg/mL (≈ 0.00338 µM) | 2.5 µg/mL (≈ 4.45 µM) | 2.5 µg/mL (≈ 4.45 µM) | 5 µg/mL (≈ 8.9 µM) | 0.63 µg/mL (≈ 1.12 µM)
CCCCC/C=C\C/C=C\CCCCCCCC(=O)OC1=C(C)C2(OCCO2)C(=O)C2=C1N1C[C@@H]3N[C@@H]3[C@]1(OC)[C@@H]2COC(N)=O [Compound 10] | 1.9 mg/kg | 4.2 mg/kg | 0.0026 µg/mL (≈ 0.00405 µM) |  |  |  | 
CC(=O)OC1=C(C)C2(OCCO2)C(=O)C2=C1N1C[C@H]3[C@H](N3C)[C@]1(O)[C@H]2COC(N)=O (some centres unmarked) [Compound 3] | 9.9 mg/kg | 11.3 mg/kg |  | 13 µg/mL (≈ 30.8 µM) | 50 µg/mL (≈ 119 µM) | 6.3 µg/mL (≈ 14.9 µM) | 13 µg/mL (≈ 30.8 µM)
COC1=C(C)C2(OCCO2)C(=O)C2=C1N1C[C@@H]3N[C@@H]3[C@]1(OC)[C@@H]2COC(N)=O [Compound 7] |  |  | 0.085 µg/mL (≈ 0.216 µM) | 10 µg/mL (≈ 25.4 µM) | 10 µg/mL (≈ 25.4 µM) | 2.5 µg/mL (≈ 6.35 µM) | 5 µg/mL (≈ 12.7 µM)
CO[C@@]12[C@H](COC(N)=O)C3=C(C(OC(=O)c4ccccc4)=C(C)C4(OCCO4)C3=O)N1C[C@@H]1N[C@@H]12 [Compound 5] |  |  | 0.013 µg/mL (≈ 0.0269 µM) | 0.63 µg/mL (≈ 1.3 µM) | 1.3 µg/mL (≈ 2.69 µM) | 1.3 µg/mL (≈ 2.69 µM) | 0.31 µg/mL (≈ 0.641 µM)
CO[C@@]12[C@H](COC(N)=O)C3=C(C(OC(C)=O)=C(C)C4(OCCO4)C3=O)N1C[C@@H]1N[C@@H]12 [Compound 2] |  |  | 0.007 µg/mL (≈ 0.0166 µM) | 1.3 µg/mL (≈ 3.08 µM) | 1.3 µg/mL (≈ 3.08 µM) | 0.16 µg/mL (≈ 0.38 µM) | 0.63 µg/mL (≈ 1.49 µM)
CO[C@@]12[C@H](COC(N)=O)C3=C(C(OC(=O)C(C)(C)C)=C(C)C4(OCCO4)C3=O)N1C[C@@H]1N[C@@H]12 [Compound 12] |  |  | 0.53 µg/mL (≈ 1.14 µM) |  |  |  | 

From patent US5021423A, “Mitomycin derivatives and intermediates therefor” (Kyowa Hakko Kogyo Kabushiki Kaisha, priority 1988, dated 1991)
